Results: patent US6063814A, “Phorbol esters as anti-neoplastic and white blood cell elevating agents” (priority 1997, dated 2000)

How the values were obtained:
[1] = Chemical stability of TPA solutions on storage; format: physicochemical; details: dark
Method: 0.10, 0.125, 0.25 or 0.5 mg of TPA was dissolved in 1.3 ml 95-100% U.S.P. ethanol and 0.7 ml saline. Under sterile conditions, TPA was first dissolved in ethanol, then saline was added, mixed vigorously, bacteriologically filtered, and stored in sealed sterile amber vials containing either 0.10 mg/2 ml, 0.125 ml/2 ml or 0.25 mg/2 ml, 0.5 mg/2 ml.
0.10, 0.125, 0.25 or 0.5 mg of TPA was dissolved in 0.2 ml of ethanol, 1.2 ml of isopropanol and 0.6 ml saline. Under sterile conditions, TPA was first dissolved in the ethanol and isopropanol, then saline was added, and the mixture was vigorously mixed, bacteriologically filtered and stored in sealed sterile amber vials containing either 0.10 mg/2 ml, 0.125 ml/2 ml or 0.25 mg/2 ml or 0.5 mg/2 ml.

mouse skin = details: cited from earlier work

SMILES: CCCCCCCCCCCCCC(=O)O[C@@H]1[C@@H](C)[C@@]2(O)[C@@H](C=C(CO)C[C@]3(O)C(=O)C(C)=C[C@@H]23)[C@@H]2C(C)(C)[C@]12OC(C)=O [TPA, Phorbol 12-Myristate-13-Acetate]
- chemical change on storage ([1]; cold temperature, up to one year): no chemical change
- chemical change on storage ([1]; room temperature, up to two months): no chemical change
- mouse skin cancer promotion (mouse skin; Chemsyn product brochure): extremely potent mouse skin cancer promoter
- tumor promotion (mouse skin; Merck Index, 11th Edition): co-carcinogen or tumor promoter
